Results as given in the NIST ThermoML archive (doi:10.1021/je700191v).
± gives the expanded uncertainty stated by the source.

Test: mn = molality of the nth substance listed, in mol/kg
Conditions: 101 kPa, Liquid

CC1(C)S[C@@H]2[C@H](NC(=O)Cc3ccccc3)C(=O)N2[C@H]1C(=O)[O-].[K+] + O
mass density [kg/m3]
Conditions | 293.15 K | 298.15 K | 303.15 K | 308.15 K
m1 = 0.01891 | 1000.62 ± 0.35 | 999.45 ± 0.35 | – | –
m1 = 0.01952 | – | – | 998.081 ± 0.35 | 996.399 ± 0.36
m1 = 0.03888 | – | – | 1000.47 ± 0.35 | 998.73 ± 0.35
m1 = 0.03922 | 1003.15 ± 0.36 | 1001.98 ± 0.35 | – | –
m1 = 0.05831 | – | – | 1002.85 ± 0.36 | 1001.06 ± 0.35
m1 = 0.05967 | 1005.7 ± 0.37 | 1004.5 ± 0.36 | – | –
m1 = 0.07995 | – | – | 1005.48 ± 0.37 | 1003.59 ± 0.36
m1 = 0.08039 | 1008.26 ± 0.38 | 1007.04 ± 0.38 | – | –
m1 = 0.1 | – | – | 1007.88 ± 0.38 | 1006.02 ± 0.37
m1 = 0.1008 | 1010.74 ± 0.39 | 1009.5 ± 0.39 | – | –
m1 = 0.1193 | – | – | 1010.19 ± 0.39 | 1008.28 ± 0.38
m1 = 0.1217 | 1013.28 ± 0.4 | 1011.99 ± 0.39 | – | –
